Test results reported in patent publication US7378081B2, “Composition and method for direct visualization of the human appendix” (Vincon Research Enterprises, LLC, priority 2003, dated 2008).

System: human appendix
Assay: Clinical data on delivery and concentration of diatrizoate iodine in the appendix
Type: in vivo
Settings: following oral administration
Method: The bioavailability and release profile of diatrizoate appear dependent on both concentration and pH, which explains why
Critical to efficacy of the composition are ‘gasless’ enteric conditions and neutralization of the harsh acidity of gastric secretions that appear to inhibit the transit of intact diatrizoate to the appendix. Clinical trials show optimal appendiceal visualization at a critical concentration of 2.8 mg % iodine; however 5 mg % is considered optimal for ideal image contrast.

SMILES: CC(=O)Nc1c(I)c(NC(C)=O)c(I)c(C(=O)O)c1I [diatrizoate, 1-deoxy-1-(methylamino)-D-glucitol-3,5-diacetamido-2,4,6-triiodobenzoate]
- time until organically bound iodine is delivered and concentrated in the human appendix: approximately 50 minutes
